Measurements from patent US20160095929A1, “PROMOTION OF WOUND HEALING” (Northwestern University, priority 2011, published 2016).
“Also recorded” adds a separate entry of the source.

Key:
[1] = test system: GM3; experiment: GM3 expression in HEKs (flow cytometry / immunofluorescence with anti-GM3 antibody); format: cell-based, human; conditions: for GM3 expression (in words): GCS inhibitor, M154 medium and glucose-supplemented medium
Procedure: A. HEKs were treated for 96 h with 0-100 pM TNF-α in complete […] medium and GM3S expression determined by qPCR. B. GM3 was quantified by flow cytometry with anti-GM3 antibody after 0-100 pM TNF-α for 96 h. C, D. HEKs were treated with 12 mM supplemental glucose (C) or in […] medium alone (D) for 72 h and GM3 was detected with anti-GM3 antibody by immunofluorescence. […] Changes in GM3 expression by immunofluorescence with anti-GM3 antibody show efficacy of siRNA- and DNA-Au NPs with 60-72 h incubation. […] C. […] A, B=routine immunofluorescence; C, D and inset of D=confocal microscopy. Bar=14 μm.

[2] = test system: IR; experiment: IR phosphorylation / signaling immunoblot in HEKs; format: cell-based, human; conditions: HEKs 72-96 h; 100 pM EtDOP4, 100 pM TNF-α, GM3 50 μM; insulin 5 μg/ml
Procedure: Cells were starved of growth factors overnight (with treatment continued), then treated for 5-60 mins (15 mins shown) with or without insulin 5 μg/ml. Cells lysates were immunoprecipitated with anti-IR polyclonal antibody and blotted with monoclonal anti-IR, PY-20, or as a loading control, actin. Membrane lysates were immunoprecipitated with IR and immunoblotted with anti-IR (top), PY-20 (second row), anti-IRS-1 (3rd row in B), or to control for loading, actin (bottom). […] Expression of IR was not affected.

[3] = test system: p-cofilin; experiment: p-cofilin immunoblotting in HEKs; format: cell-based, human; conditions: HEKs treated 72 h, immunoblot
Procedure: HEKs were treated for 72 h with or without Glu, C9, Glu+C9 (A), or with sense DNA-Au NPs or the hybrid GM2/GD2S and GD3S antisense-Au NPs (B). Immunoblotting of cell lysates detected p-cofilin8 ([…]), cofilin and, as a loading control, GAPDH.

[4] = test system: ceramides; experiment: Ceramide detection with anti-C2 Cer antibody (TLC immunostaining, ELISA) in HEKs; format: cell-based, human; conditions: TLC immunostaining and ELISA
[5] = test system: HEKs; experiment: HEK proliferation (WST assay); format: cell-based, human; conditions: with or without 12 mM glucose, up to 5 days
Procedure: (§1) A. KO and WT mouse KCs, grown in CNT07 medium, were treated with and without 12 mM glucose (Glu) for 72 h, and then plated into 96-well plates. Proliferation was measured by WST assay (Clontech) in the continued presence or absence of Glu. B. Mouse KCs were treated as above, then plated at confluence into Col I-coated 24-well plates in the presence of mitomycin C. Two hours after plating, a scratch was made and migration monitored. Migration was decreased by Glu, but was faster in the KO cells treated with Glu than with vehicle. […] A. HEKs were treated as described in FIG. 7 for mouse KCs and proliferation was measured. […] B. HEKs were treated and scratch assays performed as in FIG. 7. […] C. HEKs were treated with Glu and/or C9, but starved during the last 18 h. Cells were plated on the top of Col I-coated Boyden inserts in supplement-free medium, while the lower level was filled with the same medium with and without insulin (5 μg/ml) or IGF-1 (100 ng/ml) (Haase et al. J Cell Sci 2003; 116:3227-38.; herein incorporated by reference in its entirety). After 18 h, HEKs on the bottom surface were stained and counted. […] D-G. After their incubation in Glu and/or C9, HEKs were plated onto Col I-coated glass dishes and, 2 h later, single cells were imaged every 2 mins over a 2 h period using a Biostation phase contrast microscope (Nikon). […]

[6] = test system: HEKs; experiment: HEK scratch migration assay; format: cell-based, human; conditions: mitomycin C, with or without glucose
Procedure: as §1

[7] = test system: globotriaosylceramide; conditions: patients with Fabry disease; cited from earlier work
[8] = in animals, relative to P4; cited from earlier work
[9] = target: T1, GCS (Homo sapiens, UniProt Q16739); conditions: cited from earlier work
T1 sequence (Q16739 1-394): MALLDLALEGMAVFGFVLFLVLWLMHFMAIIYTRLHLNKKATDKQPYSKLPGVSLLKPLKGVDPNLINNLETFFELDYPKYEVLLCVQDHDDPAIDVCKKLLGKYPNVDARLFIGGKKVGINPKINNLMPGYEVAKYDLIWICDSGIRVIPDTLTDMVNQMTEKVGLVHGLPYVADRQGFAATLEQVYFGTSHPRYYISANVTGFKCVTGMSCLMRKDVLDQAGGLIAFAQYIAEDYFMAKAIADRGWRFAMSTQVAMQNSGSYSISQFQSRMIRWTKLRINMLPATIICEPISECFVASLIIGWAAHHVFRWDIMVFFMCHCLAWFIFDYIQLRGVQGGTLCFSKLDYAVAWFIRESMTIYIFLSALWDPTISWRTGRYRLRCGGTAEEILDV

[10] = test system: IGF-1R; experiment: IGF-1R phosphorylation immunoblot in HEKs; format: cell-based, human; conditions: HEKs 72 h, with or without Glu; IGF-1 100 ng/ml or insulin 5 μg/ml
[11] = test system: HEKs; experiment: HEK chemotaxis, Col I-coated Boyden inserts; format: cell-based, human; conditions: supplemental Glu, 18 h, with or without insulin 5 μg/ml or IGF-1 100 ng/ml
Procedure: (§2) A. HEKs were treated as described in FIG. 7 for mouse KCs and proliferation was measured. […] B. HEKs were treated and scratch assays performed as in FIG. 7. […] C. HEKs were treated with Glu and/or C9, but starved during the last 18 h. Cells were plated on the top of Col I-coated Boyden inserts in supplement-free medium, while the lower level was filled with the same medium with and without insulin (5 μg/ml) or IGF-1 (100 ng/ml) (Haase et al. J Cell Sci 2003; 116:3227-38.; herein incorporated by reference in its entirety). After 18 h, HEKs on the bottom surface were stained and counted. […] D-G. After their incubation in Glu and/or C9, HEKs were plated onto Col I-coated glass dishes and, 2 h later, single cells were imaged every 2 mins over a 2 h period using a Biostation phase contrast microscope (Nikon). […] Vector maps constructed with 10 representative tracks (G) further show reversal of the impact of Glu with C9 alone (which was approximately the same as with growth factors).

[12] = test system: HEKs; experiment: HEK single live cell imaging (Biostation); format: cell-based, human; conditions: Glu-treated HEKs
Procedure: as §2

[13] = test system: mouse KCs; experiment: Mouse KC proliferation (WST assay); format: cell-based; conditions: WT primary mouse KCs
Procedure: (§3) FIGS. 13A-C show ganglioside depletion reverses glucose-induced inhibition of proliferation and in vitro wound healing. (A) Mouse KCs were cultured in standard medium (8 mM glucose) or medium supplemented with 12 mM glucose treated for 72 h, and then plated at confluence onto collagen I-coated 24-well plates in the presence of mitomycin C to prevent proliferation. Two hours after plating, a scratch was made and migration was monitored photographically during the subsequent 60 h in the continued presence or absence of glucose. (B) Quantification of wound healing shown in (A) by computerized measurements of the unfilled gap. (C) Proliferation of mouse KCs was measured by WST assay in standard or glucose-supplemented medium. In vitro proliferation, migration and motility assays. […] For proliferation assays, KCs were plated onto 96-well (2×10^3 cell/well) or 12-well (2×10^4 cell/well) plates and cell proliferation was assessed daily for 5 d by either WST assay (96-well plate) per manufacturer's instruction (Clontech, Calif.) and manual counting using a hemacytometer (12-well plate). Cell migration was assessed by in vitro wound (scratch) assays as previously described (47). […] Cell migration in complete CnT-07 medium in the presence of 4 μg/mL mitomycin was recorded photographically every 3-4 h for 60 h under an inverted phase-contrast microscope (Nikon). […]

[14] = test system: mouse KCs; experiment: Mouse KC in vitro wound (scratch) migration assay; format: cell-based; conditions: WT primary mouse KCs
Procedure: as §3

[15] = phase II trials for Gaucher disease; cited from earlier work
[16] = test system: α5 integrin; conditions: on fibronectin (FN); cited from earlier work

TNF-α
increase in membrane-based GM3 expression ([1]; 0-100 pM TNF-α for 96 h, flow cytometry): 10 fold
IR signaling / IR phosphorylation (in words) [2]: suppresses IR signaling

IGF-1: insulin-like growth factor 1
phosphorylation of cofilin (in words) [3]: decrease p-cofilin

CCCCCCCCCCCCCCCC(=O)N[C@H](CN1CCCC1)[C@H](O)c1ccc2c(c1)OCCO2 [EtDOP4, D-threo-EtDO-P4]
ceramide level (in words) [4]: neither C9 nor EtDOP4 increase ceramide
proliferation (in words) [5]: increases
GM3 expression (in words) [1]: deplete GM3
migration (in words) [6]: increases
IR signaling / IR phosphorylation (in words) [2]: rescues the suppression of TNF-α of IR phosphorylation
accumulation of globotriaosylceramide [7]: decrease the accumulation of globotriaosylceramide

CCCCCCCCC(=O)N[C@H](CN1CCCC1)[C@H](O)c1ccc2c(c1)OCCO2.O=C(O)C(O)C(O)C(=O)O [C9]
ceramide level (in words) [4]: does not increase ceramides; also recorded: neither C9 nor EtDOP4 increase ceramide
proliferation (in words) [5]: greatest in cells treated with Glu and C9; also recorded: increases
metabolic and tolerability profile [8]: better metabolic and tolerability profile
reduction in GM3 expression ([1]; 1 μM C9 for 72 h, flow cytometry): 93%
GM3 expression (in words) [1]: prevents GM3 expression; also recorded: deplete GM3
potency at inhibiting GCS relative to P4 [9]: somewhat less potent
migration (in words) [6]: even faster in the HEKs treated with C9+Glu than in vehicle-treated HEKs; also recorded: increases
IGF-1R phosphorylation (in words) [10]: phosphorylates IGF-1R, including in the presence of supplemental glucose; also recorded: reverses the glucose-induced suppression of IGF-1R activation
chemotaxis (in words) [11]: increased chemotaxis of HEKs exposed to supplemental Glu
net displacement (reflecting persistence) ([12]; at 2 h): significantly increased
total distance (reflecting velocity) ([12]; at 2 h): significantly increased
cell polarity (in words) ([12]; imaged over 2 h): increased cell polarity
phosphorylation of cofilin (in words) [3]: decrease p-cofilin

lactosylceramide [LacCer]
proliferation (in words) [13]: slightly decreased
migration (in words) [14]: slightly decreased

eliglustat tartrate
toxicity [15]: showed little toxicity

insulin: growth factor, 5 μg/ml
phosphorylation of cofilin (in words) [3]: decrease p-cofilin

GT1b
KC migration [16]: inhibit KC migration specifically on fibronectin (FN)
